Measured values as given in patent publication US20050227355A1, “Serum-free cell culture media” (priority 1996, published 2005).
“Also recorded” adds a separate entry of the source.

Key:
[1] = Stability of sterol against precipitation in medium; format: physicochemical
Description: The optimum sterol for cell culture should meet the following specifications: a) be stable against precipitation in medium at 37° C., b) stimulate cell growth and viability as well as does cholesterol, or better, and c) for adherent cells: produce a high surface tension in the medium for optimum adherence of the cells to the surface by hydrophobic forces.

[2] = system: Vero, CHO-K1 and 1E6 hybridoma cells; assay: Cell growth and morphology in media containing sterols other than cholesterol (Example 8); format: cell-based; conditions: test concentration 2 μg/ml
Description: The basal media used were DME/F12 for adherent cells, and RPMI-X for suspension cells. The basal media were supplemented by SSR2 described above, i.e. a solution containing 20 mg/ml PLURONIC F68, about 4 mM EDTA, about 3 mM Fe, about 40 mM sodium citrate/citric acid, about 3 mM aurintricarboxylic acid and about 1% trace elements. […] For hybridoma cells, this was still further supplemented by ethanolamine at 20 μM. Each cul-ture was run in duplicate. As a control, cholesterol was also used, but in this case the basal medium was supplemented by ‘Solution Cx’ or ‘Solution Dx’ described above, as appropriate to the cell type. The negative controls referred to below were in each case a cell culture containing no test substance (sterol). Cells were cultivated through 2 passages for adherent cells, and 3 passages for the hybridoma line having regard to the greater difficulty of morphological scoring in suspension cultures, this being compensated by the longer culture period. All cultures of the same experiment were subcultured using an identical split ratio, for example 1:10; this ratio being adjusted in the individual experiments to suit the growth rate of the positive control (see above). […] Then adherent cells were trypsinized and subcultured further for the second passage—followed by counting the number of cells when confluent for the second time. Hybridoma cells, growing in suspension, were simply diluted in medium for each new passage. Counting of all kinds of cells were generally performed using a standard Bürker chamber, and viability determined by Trypan Blue exclusion (only viable cells were counted). In some experiments, where feasible, cells were counted directly in the microscope viewing field using a calibrated grid. […] The morphological index is mainly based on three properties: single cell morphology, number of cells, and the degree of uniform distribution of cells around the culture surface (‘cellular behaviour’).

[3] = Surface tension of the medium; format: physicochemical
[4] = system: 1E6 Mouse hybridoma; assay: Sterol analogues in suspended cell culture (Example 8); format: cell-based; conditions: test concentration 2 μg/ml
Description: The basal media were supplemented by SSR2 described above, i.e. a solution containing 20 mg/ml PLURONIC F68, about 4 mM EDTA, about 3 mM Fe, about 40 mM sodium citrate/citric acid, about 3 mM aurintricarboxylic acid and about 1% trace elements. […] Each cul-ture was run in duplicate. As a control, cholesterol was also used, but in this case the basal medium was supplemented by ‘Solution Cx’ or ‘Solution Dx’ described above, as appropriate to the cell type. The negative controls referred to below were in each case a cell culture containing no test substance (sterol).

[5] = system: Hybridoma cells; assay: Growth promoting effect of alcohols on hybridoma cells (Example 1); format: cell-based, Mouse; conditions: for effect on cell growth (inhibition of cell growth): RPMI-SR3 protein-free medium, alcohol up to 1.0% by vol
Description: • a) Hybridoma cells were cultured in RPMI 1640 supplemented with solutions A and B, described above plus 20 mM ethanolamine (referred to as RPMI-SR3), and by way of comparison in the same medium further supplemented with 10 mg/ml albumen (5% by vol.) or in RPMI 1640 supplemented with 10% v/v horse serum.

[6] = system: adherent cells; assay: Growth stimulating effect of alcohols in adherent cell culture (Example 10); format: cell-based; conditions: concentrations around 0.1%
Description: Cell culture was again carried out as described in Example 8, but with the addition of a number of alcohols rather than sterols.
Test concentration: 1×=0.1%, or 5×=0.5%.

## CC(C)CCC[C@@H](C)[C@H]1CC[C@H]2[C@@H]3CC=C4C[C@@H](O)CC[C@]4(C)[C@H]3CC[C@]12C [Cholesterol]
[1]
  stability in medium: somewhat unstable in media
[1]; 4° C., with PLURONIC F68 and ethanol
  solubility in the final medium at storage temperature: kept in solution
[1]; 37° C., cell density below 10^5 cells/ml
  solubility in the final medium at cultivation temperature: gradually precipitate

## CC(=O)O[C@H]1CC[C@@]2(C)C(=CC[C@H]3[C@@H]4CC[C@H]([C@H](C)CCCC(C)C)[C@@]4(C)CC[C@@H]32)C1 [Cholesteryl Acetate]
[2]
  cell growth and viability / suitability as replacement of cholesterol: barely affected
[2]; listed as cholesteryl acetate
  cell growth and viability / suitability as replacement of cholesterol: good results
[1]
  stability in medium: stable in solution

## C[C@H](CCC(=O)O)[C@H]1CC[C@H]2[C@@H]3[C@H](O)C[C@@H]4C[C@H](O)CC[C@]4(C)[C@H]3C[C@H](O)[C@]12C [Cholic acid]
[3]
  surface tension of the medium: low surface tension
[4]
  substitution for cholesterol in suspended cell culture: appears possible to substitute cholic acid for cholesterol

## CCO [Ethanol]
[5]
  effect on cell growth (inhibition of cell growth): positive effects on cell growth
[5]; listed as ethanol
  effect on cell growth (inhibition of cell growth): negative inhibition (i.e. promotion) of cell growth
[5]; medium with 10 mg/ml albumen or 10% v/v horse serum
  growth promoting effect in protein or serum supplemented media: no growth promoting effect; also recorded: not apparent
[6]
  effects on cell growth and viability: positive effects on cell growth and viability

## OCCO [Ethylene Glycol]
[6]
  effects on cell growth and viability: positive effects on cell growth and viability

## CO [Methanol]
[5]
  effect on cell growth (inhibition of cell growth): positive effects on cell growth

## CC(O)CO (centres unmarked) [propylene glycol]
[6]
  effects on cell growth and viability: positive effects on cell growth and viability

## CC[C@H](CC[C@@H](C)[C@H]1CC[C@H]2[C@@H]3CC=C4C[C@@H](O)CC[C@]4(C)[C@H]3CC[C@]12C)C(C)C [β-sitosterol]
[2]
  cell growth and viability / suitability as replacement of cholesterol: functions well as a stimulant of cell growth and viability
[1]
  stability in medium: less than satisfactory
